Measurements as given in patent US6114175A, “Compound for the antemortem diagnosis of Alzheimer's Disease and in vivo imaging and prevention of amyloid deposition” (priority 1998, dated 2000).
“Also recorded” adds a separate entry of the source. Read-outs that look alike come from different tables or passages of the source.

Tests used:
AD brain [1] = test: Histologic staining of human AD brain sections; settings: fluorescence microscopy
Method: 26: 241-242 (1973) with 1 mM 1,4-bis(3-carboxy-4-hydroxyphenylethenyl)-benzene substituted for Congo red, but the procedure was otherwise identical. Stained slides were examined using fluorescence microscopy.
(§1) The staining method was that of Stokes and Trickey, J. Clin. Pathol. 26: 241-242 (1973) with 1,4-bis(3-carboxy-4-hydroxyphenylethenyl)-benzene substituted for Congo red.

[2] = system: transgenic mouse brain [Tg(HuAPP695.SWE)2576]; test: Histologic staining of transgenic mouse brain sections; settings: fluorescence microscopy
Text: as §1

Aβ(10-43) [3] = biological target: T1, Aβ(10-43) (Homo sapiens, UniProt P05067); test: Inhibition of [^14 C]Chrysamine G binding to Aβ(10-43); settings: for potency/affinity relative to another compound: Congo red or the series
T1 sequence (P05067 681-714): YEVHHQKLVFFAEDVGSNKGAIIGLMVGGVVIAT

[4] = Octanol/water partitioning; settings: phosphate buffered saline, pH 7.4
AD brain [5] = test: Scatchard analysis of [^14 C]CG binding to AD brain; set-up: species or system human
control brain [6] = test: Scatchard analysis of [^14 C]CG binding to control brain; set-up: species or system human
AD brain [7] = test: Total [^14 C]Chrysamine G binding in AD brain homogenates
Aβ(10-43) [8] = biological target: T1, Aβ(10-43)
[9] = Tissue levels and metabolism of [^14 C]Chrysamine G in mice
control brain [10] = test: Total [^14 C]Chrysamine G binding in control brain homogenates
Aβ(10-43) [11] = biological target: T1, Aβ(10-43); test: Scatchard analysis of Chrysamine G binding to synthetic Aβ(10-43)
PC-12 cells = test: Protection from Aβ(25-35)-induced toxicity in PC-12 cells (MTT reduction); settings: for protection against Aβ(25-35)-induced toxicity: 1 μM Aβ(25-35) (FIG. 14)
[12] = cited from earlier work
[13] = mouse; Tubis et al.; cited from earlier work
Aβ [14] = settings: cited from earlier work
pancreatic islet cells = settings: cited from earlier work
Aβ [15] = settings: Lorenzo and Yankner; cited from earlier work

O=C(O)c1cc(C=Cc2ccc(C=Cc3ccc(O)c(C(=O)O)c3)cc2)ccc1O [1,4-bis(3-carboxy-4-hydroxyphenylethenyl)-benzene]
staining of human AD brain (AD brain [1]): much more intense than that observed with Chrysamine G, Congo red, or Thioflavin S; also recorded: Visible are a large number of neuritic plaques, a neurofibrillary tangle and frequent neuropil threads
staining of transgenic mouse brain [2]: intensely stained plaque

O=C(O)c1cc(N=Nc2ccc(-c3ccc(N=Nc4ccc(O)c(C(=O)O)c4)cc3S(=O)(=O)O)c(S(=O)(=O)O)c2)ccc1O [2,2'-(SO3)2 CG]
binding activity (Aβ(10-43) [3]): inactivity

O=C(O)c1cc(N=Nc2ccc(-c3ccc(N=Nc4ccc(O)c(C(=O)O)c4)c(C(=O)O)c3)cc2C(=O)O)ccc1O [3,3'-(COOH)2 CG]
loss of activity from Chrysamine G (Aβ(10-43) [3]; relative to Chrysamine G): 7 fold

O=C(O)c1cc(N=Nc2ccc(-c3ccc(N=Nc4ccc(O)c(C(=O)O)c4)c(Br)c3)cc2Br)ccc1O [3,3'-Br2 CG]
potency/affinity relative to another compound (Aβ(10-43) [3]; relative to Chrysamine G): about half that of Chrysamine G

O=C(O)c1cc(N=Nc2ccc(-c3ccc(N=Nc4ccc(O)c(C(=O)O)c4)c(Cl)c3)cc2Cl)ccc1O [3,3'-Cl2 CG]
potency/affinity relative to another compound (Aβ(10-43) [3]; relative to Chrysamine G): about half that of Chrysamine G

O=C(O)c1cc(N=Nc2ccc(-c3ccc(N=Nc4ccc(O)c(C(=O)O)c4)c(I)c3)cc2I)ccc1O [3,3'-I2 CG]
logD [4]: 2.05
potency/affinity relative to another compound (Aβ(10-43) [3]; relative to Chrysamine G): about half that of Chrysamine G

O=C(O)c1cc(N=Nc2ccc(-c3ccc(N=Nc4ccc(O)c(C(=O)O)c4)c(I)c3)cc2)ccc1O [3-ICG]
potency/affinity relative to another compound (Aβ(10-43) [3]; relative to Chrysamine G): slightly more potent than Chrysamine G

O=C(O)c1cc(F)cc(N=Nc2ccc(-c3ccc(N=Nc4cc(F)cc(C(=O)O)c4O)cc3)cc2)c1O [(5-FSA)CG]
potency/affinity relative to another compound (Aβ(10-43) [3]; relative to Chrysamine G): one-third as potent as Chrysamine G itself

O=C(O)c1c(O)ccc(N=Nc2ccc(-c3ccc(N=Nc4ccc(O)c(C(=O)O)c4O)cc3)cc2)c1O [(6-OHSA)CG]
Ki (Aβ(10-43) [3]): 0.094 ± 0.02 µM
potency/affinity relative to another compound (Aβ(10-43) [3]; relative to Chrysamine G): highest affinity compound in this series

O=C(O)c1cc(N=Nc2ccc(-c3ccc(N=Nc4ccc(O)c(C(=O)O)c4)cc3)cc2)ccc1O [Chrysamine G, 4,4'-bis(3-carboxy-4-hydroxyphenylazo)-biphenyl]
Bmax, AD brain (Table 1) (AD brain [5]; n = 5): 0.784 ± .061 pmol/μg prot
Kd (AD brain [5]; n = 5, read-out: KD, AD brain (Table 1)): 0.39 ± 0.048 µM
Bmax in AD brain higher than control (AD brain [5]; p=0.09, not significant): 36%
KD in AD brain lower than control (AD brain [5]; p=0.29, not significant): 16%
Bmax (typical AD brain sample) (AD brain [5]; sample with 48 NP/×200 magnification): 790 fmol/μg protein
Kd (AD brain [5]; sample with 48 NP/×200 magnification, read-out: KD (typical AD brain sample)): 0.35 µM
Bmax, control brain (Table 1) (control brain [6]; n = 6): 0.576 ± .092 pmol/μg prot
Kd (control brain [6]; n = 6, read-out: KD, control brain (Table 1)): 0.47 ± 0.049 µM
Bmax (typical control sample) (control brain [6]; single typical control): 614 fmol/μg protein
Kd (control brain [6]; single typical control, read-out: KD (typical control sample)): 0.48 µM
logD [4]: 1.78
saturable (specific) binding as share of total binding in AD brain (AD brain [7]; 20 μM unlabelled CG defines non-saturable): 60-80%
correlation (r) of [^14 C]CG binding with NPs (AD brain [7]; AD brains alone, p=0.007): 0.59
correlation (r) of [^14 C]CG binding with NFTs (AD brain [7]; AD brains alone, p=0.026): 0.50
total binding, Head of Caudate (AD brain [7]; AD, n = 7, p = 0.14): 123 ± 22 fmol/μg protein
total binding, Frontal Pole (AD brain [7]; AD, n = 10, p < 0.006): 124 ± 16 fmol/μg protein
total binding, Superior/Middle Frontal (AD brain [7]; AD, n = 11, p < 0.005): 130 ± 21 fmol/μg protein
total binding, Superior Temporal (AD brain [7]; AD, n = 11, p < 0.02): 121 ± 14 fmol/μg protein
total binding, Inferior Parietal (AD brain [7]; AD, n = 11, p < 0.03): 137 fmol/μg protein
total binding, Cerebellum (AD brain [7]; AD, n = 11, p = 0.91): 73 ± 9 fmol/μg protein
correlation (r) of CG binding with NP counts (AD brain [7]; brains with cerebrovascular amyloid, p=0.15): 0.49
correlation (r) of CG binding with NP counts (AD brain [7]; brains without amyloid angiopathy, p=0.01): 0.79
correlation (r) of [^14 C]CG binding with NFTs (AD brain [7]; controls included, p=0.001): 0.60
correlation (r) of [^14 C]CG binding with NPs (AD brain [7]; controls included, p=0.001): 0.69
overlap of binding between control and AD samples (AD brain [7]; superior/middle frontal cortex): no overlap between control and any of the AD samples
dissociation t1/2 (Aβ(10-43) [8]): 55 ± 9.4 s
metabolism ([9]; 60 min after i.v. injection, brain and liver): no significant metabolism; also recorded: essentially all of the radioactivity found in the brain and liver proved to be unchanged Chrysamine G
entry into brain ([9]; normal mouse brain): does get into normal mouse brain, and the brain/blood ratio is high
total binding, Head of Caudate (control brain [10]; n = 4): 73 ± 11 fmol/μg protein
total binding, Frontal Pole (control brain [10]; n = 6): 58 ± 8 fmol/μg protein
total binding, Cerebellum (control brain [10]; n = 8): 75 ± 13 fmol/μg protein
total binding, Inferior Parietal (control brain [10]; n = 8): 76 ± 13 fmol/μg protein
total binding, Superior Temporal (control brain [10]; n = 8): 66 ± 17 fmol/μg protein
total binding, Superior/Middle Frontal (control brain [10]; n = 8): 54 ± 10 fmol/μg protein
energy of binding (from KD) (Aβ(10-43) [11]; KD 0.26 μM): roughly 38 KJ/mole
Bmax, lower affinity component (Aβ(10-43) [11]; less well defined): 18.7 nmoles Chrysamine G/mg Aβ(10-43)
Kd (Aβ(10-43) [11]; read-out: KD, higher affinity component (Scatchard), Aβ(10-43), two-site model): 0.26 µM
Kd (Aβ(10-43) [11]; read-out: KD, lower affinity component (Scatchard), less well defined): 4.01 µM
Bmax, higher affinity component (Aβ(10-43) [11]; two-site model): 3.18 nmoles Chrysamine G/mg Aβ(10-43)
protection against Aβ(25-35)-induced toxicity (PC-12 cells): protective effects at 0.1 and 1 μM
protective effect dependence (PC-12 cells; 0.01 to 10 μM Aβ(25-35) and 0.03 to 20 μM CG): protective effect which is dependent on both the concentration of Aβ(25-35) (FIG. 12) as well as the concentration of Chrysamine G
minimal effective concentration (PC-12 cells; Rattus norvegicus, PC-12, 24 h, read-out: concentration at which protective effect is evident): 0.2 µM
MTT reduction in the absence of Aβ(25-35) vs control (PC-12 cells; any of the Chrysamine G concentrations): no significant difference

Nc1c(/N=N/c2ccc(-c3ccc(/N=N/c4cc(S(=O)(=O)O)c5ccccc5c4N)cc3)cc2)cc(S(=O)(=O)O)c2ccccc12 [Congo red]
blood-brain barrier crossing ([12]; guinea pig, in vivo): does not cross the blood-brain barrier well
brain/kidney ratio ([12]; guinea pigs): approximately 0.07
LD50 [13]: 190 mg/kg
concentration for complete protection against Aβ-induced toxicity (Aβ [14]): ≤ 20 µM
concentration for protection against Aβ-induced toxicity (Aβ [14]): over 2 μM
effect on Aβ-induced neurotoxicity (Aβ [14]; in vitro): inhibits fibrillar Aβ neurotoxicity; also recorded: inhibits Aβ-induced neurotoxicity and cell degeneration in vitro
effect on amylin toxicity to pancreatic islet cells (pancreatic islet cells): inhibit pancreatic islet cell toxicity; also recorded: protect pancreatic islet cells from the toxicity caused by amylin
effect on aggregation of Aβ (Aβ [15]): does inhibit aggregation of Aβ
logD [4]: -0.177
Ki (Aβ(10-43) [3]; read-out: Ki for inhibition of [^14 C]Chrysamine G binding to Aβ(10-43), [^14 C]Chrysamine G 0.100-0.125 μM): 2.8 µM

O=C(O)c1cc(N=Nc2ccccc2)ccc1O [aniline derivative]
Ki (Aβ(10-43) [3]): 73 µM
binding activity (Aβ(10-43) [3]): decrease in affinity
energy of binding (from Ki) (Aβ(10-43) [3]; Ki of 73 μM): 5.5 kcal/mol
expected energy of binding (one-half of Chrysamine G) (Aβ(10-43) [3]; predicted value): about 19 KJ/mole

Oc1ccc(N=Nc2ccc(-c3ccc(N=Nc4ccc(O)cc4)cc3)cc2)cc1 [phenol derivative]
binding activity (Aβ(10-43) [3]): completely destroyed binding affinity; also recorded: does not bind to synthetic Aβ
protection against Aβ(25-35)-induced toxicity (PC-12 cells): no protective effects, and perhaps enhanced the toxicity of Aβ

O=C(O)c1ccccc1O [salicylic acid]
binding activity (Aβ(10-43) [3]): total lack of binding activity; also recorded: inactivity
